According to patent US20200207989A1, “FLUORESCENT PROBE FOR ALDH3A1 DETECTION” (The University of Tokyo, priority 2016, published 2020):

Legend:
[1] = HPLC (LC/MS) retention time as measure of hydrophilicity / membrane permeability; type: physicochemical; details: C18 column, 20% B 2.5 min, 20%-->100% B 5 min, 500 μL/min, neutral conditions, mean±SD of three tests
Experimental: In the present invention, it is preferable to use the retention time on an HPLC chromatogram as the measure of hydrophilicity.
HPLC conditions: taking solvent A to be 0.01 M ammonium formate/water and solvent B to be 80% acetonitrile 0.01 M ammonium formate/water, chromatography is carried out under conditions of 20% solvent B for 2.5 minutes followed by a 5-minute linear gradient of solvent B from 20% to 100% (flow rate 500 μL/min).
A C18 column (HP 3 μm, inner diameter: 2.1 mm, length: 150 mm, GL Science), for example, can be used suitably as the column.
The water solubility was verified by LC/MS under neutral conditions to compare the membrane permeability of the five probes produced above and ALDEFLUOR. The reaction was stopped after advancing the reaction to the point that each probe was present as both a carboxylic acid form and an aldehyde form using a suitable isoform and concentration of ALDH, and analysis was conducted by LC/MS (Agilent 1200/6130 quadrupole LC/MS system). A C18 column (HP 3 μm, inner diameter: 2.1 mm, length: 150 mm, GL Science) was used as the column. HPLC chromatograms were carried out by 20% B for 2.5 minutes followed by a five-minute linear gradient (flow rate: 500 μL/min) from 20% to 100% B, taking solvent A to be 0.01 M ammonium formate/water and solvent B to be 80% acetonitrile 0.01 M ammonium formate/water. The probe containing BODIPY was detected by the absorbance at a wavelength of 504 nm and the probe containing TG at a wavelength of 495 nm, and m/z of the MS spectrum at each peak was confirmed to agree with the expected m/z. Three independent tests were run, and the mean±SD was calculated. […] Given that imaging of probe 1 was not successful, there was thought to be a threshold at which the membrane permeability changes rapidly between this 6.741 minutes and 7.098 minutes (band in FIG. 2).

OE21 cell line = experiment: Cell imaging of OE21 cells against CB7 negative control; type: cell-based; details: probe 5: 40 μM, 90 minutes at 37° C., CB7 10 μM control
Experimental: 40 μM of probe 5 was added to culture medium (RPMI 1640, 10% FBS, 15 mM HEPES, phenol red-free). After culturing for 90 minutes at 37° C., the cells were washed using a chilled medium and examined under a confocal microscope. A sample with a specific ALDH3A1 inhibitor (1-[(4-fluorophenyl)sulfonyl]-2-methyl-1H-benzimidazole, CB7, 10 μM) added served as a negative control. Excitation was provided by a 488 nm laser, and observation was carried out at wavelengths of […] in detection.

ALDH1A3 = molecular target: T1, ALDH1A3 (Homo sapiens, UniProt P47895); experiment: Reactivity of probes to recombinant ALDH1A3 (UPLC/MS/MS); type: biochemical; details: 10-100 nM ALDH, 10-80 μM compound, Tris buffer pH 7.5, 30 minutes at 37° C., ◯/X not defined by a legend
T1 construct: purchased
T1 sequence (P47895 1-512): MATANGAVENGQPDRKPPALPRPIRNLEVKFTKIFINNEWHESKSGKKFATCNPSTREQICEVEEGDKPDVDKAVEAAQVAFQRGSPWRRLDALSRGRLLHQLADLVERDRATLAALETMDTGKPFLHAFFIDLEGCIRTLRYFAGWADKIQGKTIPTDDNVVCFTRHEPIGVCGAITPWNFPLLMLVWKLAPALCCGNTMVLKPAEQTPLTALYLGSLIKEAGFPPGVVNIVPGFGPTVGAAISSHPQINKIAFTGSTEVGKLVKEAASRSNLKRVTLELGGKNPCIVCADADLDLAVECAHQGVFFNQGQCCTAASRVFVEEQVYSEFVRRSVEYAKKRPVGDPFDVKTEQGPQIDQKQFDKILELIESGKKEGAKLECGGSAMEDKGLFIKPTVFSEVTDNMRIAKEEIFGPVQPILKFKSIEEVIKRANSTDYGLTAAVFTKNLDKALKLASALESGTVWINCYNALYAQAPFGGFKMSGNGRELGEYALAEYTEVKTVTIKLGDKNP
Experimental: Human recombinant ALDH1A1/1A3/3A1 was purchased, and 100 mM of KCL, 2 mM of DTT, 1 mM of NAD(P), 10-100 nM of each ALDH, and 10-80 μM of each compound were mixed in Tris buffer (100 mM, pH 7.5), reacted for 30 minutes at 37° C., an equal amount of acetonitrile added, and the reaction stopped. The reaction solution was analyzed by UPLC/MS/MS (Waters). The UPCL chromatogram was carried out over five minutes at a flow rate of 800 μL/min by a linear gradient from 5% acetonitrile 0.01 M ammonium formate/water to 95% acetonitrile 0.01 M ammonium formate/water.

N-(4-formylbenzyl)-3-(1,3-dimethyl-4,4-difluoro-4-bora-3a,4a-diaza-s-indacen-5-yl)-propionamide [Probe 1]
Retention Time, Aldehyde form [1]: 8.874 ± 0.000 min | Retention Time, carboxylate (carboxylic acid form) [1]: 7.098 ± 0.001 min | Retention Time, carboxylate (carboxylic acid form) ([1]; listed as probe 1): 7.098 min | Brightness of cells in imaging compared to negative control (CB7) (OE21 cell line): no evident difference in brightness could be found in comparison to the negative control | Reactivity to ALDH1A3 (ALDH1A3): ◯ | Reactivity to ALDH1A3 (ALDH1A3; listed as Compound 1): reacted with all three of the isoforms tested
